Test results as given in the NIST ThermoML archive (doi:10.1021/acs.jced.8b00170).
Numbers after ± are expanded uncertainties.

Experiments:
[1] = Crystal; DTA
[2] = Molar enthalpy of transition or fusion; conditions: Crystal; DSC
[3] = wn = mass fraction of the nth substance listed; conditions: 101.3 kPa, Liquid, Pycnometric method

Cc1ccc2c(c1)C(=O)OC2=O [4-methylphthalic anhydride]
Normal melting temperature [1]: 88.2 ± 2 °C
Molar enthalpy of transition or fusion [2]: 4.5 ± 0.263 kcal/mol

Cc1ccc2c(c1)C(=O)OC2=O [4-methylphthalic anhydride] + CCOC(C)=O
mass density ([3]; 288.15 K, w1 = 0.2202): 933 ± 18 kg/m3
mass density ([3]; 298.15 K, w1 = 0.2878): 948 ± 18 kg/m3
mass density ([3]; 308.15 K, w1 = 0.3605): 964 ± 19 kg/m3

O=Cc1ccc2ccccc2c1 [β-naphthaldehyde] + CCOC(C)=O
mass density ([3]; 288.15 K, w1 = 0.2851): 944 ± 18 kg/m3
mass density ([3]; 298.15 K, w1 = 0.3937): 957 ± 19 kg/m3
mass density ([3]; 308.15 K, w1 = 0.5686): 975 ± 18 kg/m3
